In patent publication US6921768B2, “Cytostatic cerium compounds” (Faustus Forschungs Cie. Translational Cancer Research GmbH, priority 2001, dated 2005):

Key:
[1] = test system: over 50 human tumour cell lines; conditions: 48-h sulphurhodamine B-assay
Method: First in vitro tests were carried out at the National Cancer Institute (Bethesda, Md., USA).

[2] = test system: 13 human tumour xenografts and 10 human tumour cell lines; conditions: propidium iodide assay
[3] = mean over more than 50 human tumour cell lines
[4] = mean over 13 human tumour xenografts and 10 human tumour cell lines

`O.[Cl-].[Cl-].[Cl][Ce+2].c1cnc2c(c1)ccc1cccnc12.c1cnc2c(c1)ccc1cccnc12` [KP 776, trans-[aquachlorobis(1,10-phenantrolin)cerium(III)]-dichloride] was tested, and the “Mean Gl50” value [1, 3] was 0.61 µg/mL, the “Mean LC50” value [1, 3] was 39.4 µg/mL and the “activity on single ovarian, kidney cell and parvicellular and non-parvicellular bronchial carcinoma cell lines” value ([1]; result in words) was “Above average activities”. For the same compound, the “selectivity among tumour cell line types” value ([1]; result in words) was “a certain selectivity for malignant melanoma was evident”, the IC50 ([1]; read-out: Mean Gl50, mean over more than 50 human tumour cell lines) was 0.98 µM and the CC50 ([1]; read-out: Mean LC50, mean over more than 50 human tumour cell lines) was 63.1 µM. The “Mean IC50” value [2, 4] was 1.20 µg/mL, the “Mean IC90” value [2, 4] was 7.27 µg/mL and the “tumour type with strongest effectiveness” value ([2]; result in words) was “the strongest effectiveness was found on a melanoma (xenograft)”. For the same compound, the IC50 ([2]; read-out: Mean IC50, mean over 13 human tumour xenografts and 10 human tumour cell lines) was 1.92 µM and the IC90 ([2]; read-out: Mean IC90, mean over 13 human tumour xenografts and 10 human tumour cell lines) was 11.6 µM.
